# Source: BindingDB's records for doi:10.7270/Q2QF8R8B (Pcmd, 2008)
# Molecular target: T1, Cathepsin G (Homo sapiens, UniProt P08311)
# T1 sequence (P08311 whole entry): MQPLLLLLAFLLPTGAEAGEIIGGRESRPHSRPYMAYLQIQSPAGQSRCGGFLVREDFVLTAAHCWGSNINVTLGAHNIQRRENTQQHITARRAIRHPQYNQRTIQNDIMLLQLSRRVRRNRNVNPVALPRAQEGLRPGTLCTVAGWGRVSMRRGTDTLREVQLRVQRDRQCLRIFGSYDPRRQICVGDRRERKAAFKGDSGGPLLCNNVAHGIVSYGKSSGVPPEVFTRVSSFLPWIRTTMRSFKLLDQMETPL
# Assay: IC50 of CTSG protease blockers – biochemical, confirmation, dose response (AID 832)
row,SMILES,IC50 [µM]
1,"COc1ccc(OC)c(-c2cc(C(=O)Nc3c(C)nn(Cc4ccccc4)c3C)no2)c1 [5-(2,5-dimethoxyphenyl)-N-[3,5-dimethyl-1-(phenylmethyl)-4-pyrazolyl]-3-isoxazolecarboxamide]",33
2,"Cc1ccc(C(=O)n2cnnc2N)cc1C [4-(3,4-dimethylbenzoyl)-4H-1,2,4-triazol-3-amine]",1.58
3,COc1ccc(S(=O)(=O)n2nc(OC(=O)c3cccs3)cc2N)cc1 [2-thiophenecarboxylic acid [5-amino-1-(4-methoxyphenyl)sulfonyl-3-pyrazolyl] ester],2.52
4,"O=c1oc(-c2cccnc2)nc2ccccc12 [2-(3-pyridinyl)-3,1-benzoxazin-4-one]",2.77
5,"CSc1nc(-c2ccco2)nn1C(=O)c1ccco1 [2-furanyl-[3-(2-furanyl)-5-(methylthio)-1,2,4-triazol-1-yl]methanone]",11.7
6,"CCN1C(=O)c2ccc(-c3nc4ccccc4c(=O)o3)cc2C1=O [2-ethyl-5-(4-keto-3,1-benzoxazin-2-yl)isoindoline-1,3-quinone]",> 50
7,COc1ccc(C(=O)n2nc(-c3ccc(C)cc3)nc2N)cc1OC,> 50
8,"O=c1oc(-c2cccc(S(=O)(=O)N3CCOCC3)c2)nc2ccccc12 [2-(3-morpholin-4-ylsulfonylphenyl)-3,1-benzoxazin-4-one]",4.05
9,"COc1ccc2c(c1)CCc1c(C(=O)Nc3ccn(Cc4ccc(C)cc4)n3)noc1-2 [7-methoxy-N-[1-(4-methylbenzyl)-1H-pyrazol-3-yl]-4,5-dihydronaphtho[2,1-d]isoxazole-3-carboxamide]",2.91
10,COc1ccc(S(=O)(=O)n2nc(OC(=O)c3ccccc3)cc2N)cc1 [Benzoic acid 5-amino-1-(4-methoxy-benzenesulfonyl)-1H-pyrazol-3-yl ester],20.8
11,"CN1CC2(Cc3c1ccc1ccccc31)C(=O)OC(C)(C)OC2=O [2',2',4-trimethylspiro[1,3-dihydrobenzo[f]quinoline-2,5'-1,3-dioxane]-4',6'-dione]",23.3
12,COC(=O)c1sc(N2C(=O)C(=O)C(C(=O)c3ccc(C)o3)C2c2ccc(F)cc2)nc1C (stereo not drawn) [2-[2-(4-fluorophenyl)-4-hydroxy-3-[(5-methyl-2-furanyl)-oxomethyl]-5-oxo-2H-pyrrol-1-yl]-4-methyl-5-thiazolecarboxylic acid methyl ester],> 50
13,"COc1ccccc1-c1cc(C(=O)NC(C)c2ccccc2)no1 (stereo not drawn) [5-(2-methoxyphenyl)-N-(1-phenylethyl)-1,2-oxazole-3-carboxamide]",21.8
14,COc1ccc(C2C(C(=O)c3cccs3)C(=O)C(=O)N2c2nncs2)cc1 (stereo not drawn),> 50
15,"O=C(c1noc2c1CCc1ccccc1-2)N1CCc2ccccc2C1 [3-(3,4-dihydroisoquinolin-2(1H)-ylcarbonyl)-4,5-dihydronaphtho[2,1-d]isoxazole]",19.6
16,O=C(c1ccc2c(c1)OCO2)n1nnc2ccccc21,0.957
17,"CSc1nc(-c2ccco2)nn1C(=O)c1ccc(C)cc1 [[3-(furan-2-yl)-5-methylsulfanyl-1,2,4-triazol-1-yl]-(4-methylphenyl)methanone]",1.02
18,CCOC(=O)c1ccc(NC(=O)CS(=O)(=O)c2cn(CC)c3ccccc23)cc1 [4-[[2-(1-ethylindol-3-yl)sulfonylacetyl]amino]benzoic acid ethyl ester],> 50
19,Cc1cc(C)cc(C(=O)n2cnnc2N)c1,3.88
20,O=C(NCc1cccs1)c1cc(-c2cccs2)on1 [5-thien-2-yl-N-(thien-2-ylmethyl)isoxazole-3-carboxamide],15.2
21,"COc1ccc2c(c1)CCc1c(C(=O)N3CCc4ccccc4C3)noc1-2 [3,4-dihydro-1H-isoquinolin-2-yl-(7-methoxy-4,5-dihydrobenz[g]indoxazen-3-yl)methanone]",> 50
22,"Cc1ccsc1C=c1sc2ncnn2c1=O [5-[(3-methyl-2-thienyl)methylene][1,3]thiazolo[3,2-b][1,2,4]triazol-6(5H)-one]",4.66
23,"Cc1nn(Cc2ccc(Cl)c(Cl)c2)c(C)c1NC(=O)c1cc(-c2ccc3c(c2)OCO3)on1 [5-(1,3-benzodioxol-5-yl)-N-[1-(3,4-dichlorobenzyl)-3,5-dimethyl-1H-pyrazol-4-yl]isoxazole-3-carboxamide]",18.6
24,"O=C(c1csc2c1CCCC2)n1cccn1 [1-(4,5,6,7-tetrahydro-1-benzothien-3-ylcarbonyl)-1H-pyrazole]",3.61
25,"Cc1nc2scc(-c3cccs3)c2c(=O)o1 [2-methyl-5-(2-thienyl)thieno[2,3-d][1,3]oxazin-4-one]",> 50
26,Cc1cc(OC(=O)c2ccccc2)n(CCC#N)n1 [[2-(2-cyanoethyl)-5-methyl-pyrazol-3-yl] benzoate],2.26
27,"Cc1cccc(-n2nnc(C(=O)Nc3ccc(F)cc3)c2N)c1 [5-amino-N-(4-fluorophenyl)-1-(3-methylphenyl)-1H-1,2,3-triazole-4-carboxamide]",> 50
28,"COC(=O)c1ccccc1NC(=O)c1cc2sccc2n1C [2-[(4-Methyl-4H-thieno[3,2-b]pyrrole-5-carbonyl)-amino]-benzoic acid methyl ester]",30.4
29,"COc1ccc2c(c1)CCc1c(C(=O)NCCN3CCOCC3)noc1-2 [7-methoxy-N-(2-morpholin-4-ylethyl)-4,5-dihydrobenzo[g][1,2]benzoxazole-3-carboxamide]",5.82

# The next lines start with the values.
row,IC50 [µM],SMILES
1,20.2,CC[C@@H](C)[C@H](NC(=O)OC(C)(C)C)c1nnc(S(=O)(=O)Cc2cc(C)ccc2C)o1 [MLS000042033]
2,10.8,Cc1nn(C(=O)c2ccccc2)c2c1C(=O)CC(C)(C)C2 [SMR000069174]
3,4.25,Cc1cc(NC(=O)c2noc3c2CCc2ccccc2-3)no1 [MLS000116422]
4,> 50,O=C1CCCC(=O)C1=CNCCc1ccccc1 [MLS000108318]
5,> 50,Cc1cc(NC(=O)c2noc3c2CCc2ccccc2-3)n(-c2ccccc2)n1 [MLS000116423]
6,5.32,O=C(NCCN1CCOCC1)c1noc2c1CCc1ccccc1-2 [MLS000087427]
7,2.52,COc1ccc2c(c1)CCc1c(C(=O)NCc3ccc(F)cc3)noc1-2 [MLS000116425]
8,2.17,CC(=O)Nc1cccc(-c2nc3ccccc3c(=O)o2)c1 [MLS000061720]
9,9.38,CC(C)[C@H](NC(=O)OC(C)(C)C)c1nnc(S(=O)(=O)Cc2c(F)cccc2Cl)o1 [SMR000044502]
10,> 50,COc1cc(NC(=O)c2csc3c2CCCC3)ncn1 [MLS000093387]
11,37.9,COc1ccccc1/N=C/c1nc(-c2ccccc2)oc1OC(C)=O [SMR000039734]
12,2.48,O=C(NCCc1ccccc1)c1noc2c1CCc1ccccc1-2 [MLS000087424]
13,> 50,O=c1[nH]c(CN2CCc3ccccc3C2)nc2ccccc12 [MLS000088906]
14,4.64,COc1ccc2c(c1)CCc1c(C(=O)Nc3c(C)n(C)n(-c4ccccc4)c3=O)noc1-2 [MLS000087455]
15,> 50,COc1ccccc1-c1c(C#N)c(SCC(=O)N2CCCC2)nc(C)c1C(N)=O [SMR000061200]
16,> 50,Cc1ccc(NC(=O)Cc2nn(C)c(=O)c3ccccc23)cc1F [MLS000047015]
17,3.43,CCC(=O)Nc1cccc(-c2nc3ccccc3c(=O)o2)c1 [MLS000090237]
18,2.55,CCCNC(=O)c1noc2c1CCc1ccccc1-2 [MLS000116420]
19,1.47,COc1ccc2c(c1)CCc1c(C(=O)Nc3cc(C)n(Cc4ccc(Cl)cc4)n3)noc1-2 [MLS000087458]
